Measurements as given in patent EP2975030B1, “DIHYDROPYRIDAZINE-3,5-DIONE DERIVATIVE” (Chugai Seiyaku Kabushiki Kaisha, priority 2013, dated 2014).

Legend:
[1] = tested on: rat small-intestinal brush border membrane vesicles; experiment: Inhibitory effect on 33PO4 uptake into rat small-intestinal brush border membrane vesicles (rapid filtration method); assay type: biochemical, Wistar female rat; conditions: 1 µM test compound, 33PO4 uptake into rat small-intestinal BBMVs, 60 seconds
Method in brief: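 33PO4 uptake into rat small-intestinal brush border membrane vesicles measured by rapid filtration. Reactions were stopped with ice-cold buffer (110 mM NaCl, 1 mM KH2PO4, 10 mM HEPES pH 7.5), filtered and washed. Vesicle-associated radioactivity was counted by liquid scintillation.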

[2] = tested on: human NaPi-IIb; experiment: Inhibitory effect on 33PO4 uptake into human NaPi-IIb-expressing cell; assay type: cell-based; conditions: CHO cells stably expressing human NaPi-IIb, 1, 3, 10, or 30 µM
Experimental: CHO cells were transfected with human NaPi-IIb expression plasmids, and a stably human NaPi-IIb-expressing cell line was obtained using G418. The human NaPi-IIb-expressing cells were inoculated to a 96-well plate and incubated overnight in a CO2 incubator. The medium was replaced with buffer A (145 mM choline chloride, 3 mM KCl, 1 mM CaCl2, 0.5 mM MgCl2, 5 mM glucose, and 5 mM MES (pH 6.5)) and then replaced with buffer B (145 mM NaCl, 3 mM KCl, 1 mM CaCl2, 0.5 mM MgCl2, 5 mM glucose, and 5 mM MES (pH 6.5)) supplemented with each test compound at a final concentration of 1,3, 10, or 30 µM or buffer A supplemented with DMSO. After a given time, a 1/20 volume of buffer A containing ^33PO4 was added thereto and reacted at room temperature. After washing with ice-cold buffer A, a liquid scintillator was added to each reaction mixture, and the amount of ^33PO4 uptake was measured using TopCount. The rate of inhibition was determined according to the following expression: [formula]

[3] = tested on: adenine-induced renal failure rat; experiment: Suppressive effect on rise in serum phosphorus concentration of adenine-induced renal failure rat (0.1% in feed, 3 days); assay type: in vivo, Wistar male rat; conditions: feed or water, 72 h, rate of suppression of a rise in serum phosphorus concentration, 0.1% of mass concentration in feed
Excerpt: Test Example 5: Suppressive effect on rise in serum phosphorus concentration of adenine-induced renal failure rat Adenine was forcedly administered orally to each Wistar male rat (7-8 weeks old) to impair renal functions and thereby prepare a hyperphosphatemia model ([…], Nagano N, Burke SK, Fukushima N. Sevelamer hydrochloride prevents ectopic calcification and renal osteodystrophy in chronic renal failure rats. Kidney Int. 2003 Aug; 64 (2): 441-50). Each test compound was mixed at a ratio of 0.1% of mass concentration with feed. The animal was fed with a given amount of the feed for 3 days. A group given feed non-supplemented with a test compound was used as a reference pathological group, and an adenine-unadministered group given feed non-supplemented with a test compound was used as a normal group. 3 days after the start of administration of the test compound, blood was collected from the jugular vein, and serum was collected. Serum phosphorus concentrations were measured by the Fiske-Subbarow method. The rate of suppression of a rise in serum phosphorus concentration was determined according to the following expression: Rate (%) of suppression of a rise in serum phosphorus concentration = (1-[([…]-treatedpathologicalgroup); -(Serumphosphorusconcentrationofthenormalgroup)]/; [(Serumphosphorusconcentrationofthereferencepathologicalgroup)-(Serumphosphorusconcentrationofthenormalgroup)]) × 100 [formula] As a result, each test compound was confirmed to have a suppressive effect on a rise in serum phosphorus concentration. […]

[4] = tested on: adenine-induced renal failure rat; experiment: Suppressive effect on rise in serum phosphorus concentration of adenine-induced renal failure rat (0.05% in feed, 8 days); assay type: in vivo, Wistar male rat; conditions: rate of suppression of a rise in serum phosphorus concentration, 0.05% of mass concentration in feed
Experimental: Test Example 6: Suppressive effect on rise in serum phosphorus concentration of adenine-induced renal failure rat
Each adenine-induced renal failure rat was prepared in the same way as in Test Example 5. Each test compound was mixed at a ratio of 0.05% of mass concentration with feed. The animal was fed with a given amount of the feed for 8 days. A group given feed non-supplemented with a test compound was used as a reference pathological group, and an adenine-unadministered group given feed non-supplemented with a test compound was used as a normal group. 8 days after the start of administration of the test compound, blood was collected from the jugular vein, and serum was collected. Serum phosphorus concentrations were measured by the Fiske-Subbarow method. The rate of suppression of a rise in serum phosphorus concentration was determined according to the following expression: Rate (%) of supression of a rise in serum phosphorus concentration = (1−[(Serumphosphorusconcentrationofthetestcompound−treatedpathologicalgroup)−(Serumphosphorusconcentrationofthenormalgroup)]/[(Serumphosphorusconcentrationofthereferencepathologicalgroup)−(Serumphosphorusconcentrationofthenormalgroup)]) × 100 [formula]
As a result, each test compound was confirmed to have a suppressive effect on a rise in serum phosphorus concentration. […]

| IC50 [2] | Compound | Rate of uptake inhibition (%) (1 µM) ([1]; 1 µM) | Rate of uptake inhibition (%) (1 µM) [1] | inhibition in vivo at 0.1 %, 0.1 % in feed [3] | Rate of inhibition (%) [4] |
| --- | --- | --- | --- | --- | --- |
| 14 µM | CN1N(Cc2ccc(OCCNCCS(=O)(=O)O)c(F)c2F)C(=O)C(C(=O)Nc2ccc(C(F)(F)F)cc2-c2cc(C(F)(F)F)ncn2)=C(O)C12CCCC2 [Example 436, 2-[2-[2,3-Difluoro-4-[[10-hydroxy-6-methyl-8-oxo-9-[[4-(trifluoromethyl)-2-[6-(trifluoromethyl)pyrimidin-4-yl]phenyl]carbamoyl]-6,7-diazaspiro[4.5]dec-9-en-7-vl]methyl]phenoxy]ethylamino]ethanesulfonic acid] | 12% |  |  |  |
|  | COCCN(C)CCOc1ccc(CN2C(=O)C(C(=O)Nc3ccc(C(F)(F)F)cc3-c3cc(C(F)(F)F)ncn3)=C(O)C3(CCCC3)N2C)c(F)c1F [Example 14, 7-[[2,3-Difluoro-4-[2-[2-methoxyethyl(methyl)amino]ethoxy]phenyl]methyl]-10-hydroxy-6-methyl-8-oxo-N-[4-(trifluoromethyl)-2-[6-(trifluoromethyl)pyrimidin-4-yl]phenyl]-6,7-diazaspiro[4.5]dec-9-ene-9-carboxamide] |  | 29% | 39% |  |
|  | C[C@]12CCCN1N(Cc1ccc(OCCCCCCOC[C@H](O)CO)c(F)c1F)C(=O)C(C(=O)Nc1cnc(C(F)(F)F)nc1-c1ccc(C(F)(F)F)nc1)=C2O [Example 156, (4aR)-1-[[4-[6-[(2R)-2,3-Dihydroxypropoxy]hexoxy]-2,3-difluorophenyl]methyl]-4-hydroxy-4a-methyl-2-oxo-N-[2-(trifluoromethyl)-4-[6-(trifluoromethyl)pyridin-3-yl]pyrimidin-5-yl]-6,7-dihydro-5H-pyrrolo[1,2-b]pyridazine-3-carboxamide] |  | 59% | 21% |  |
| 19.8 µM | CN(C)S(=O)(=O)N1CCC(c2cc(C(F)(F)F)ccc2NC(=O)C2=C(O)[C@@]3(C)CCCN3N(Cc3cccc(F)c3F)C2=O)CC1 [Example 110] |  | 57% |  |  |
|  | C[C@]12CCCN1N(Cc1ccc(OCCCCOC[C@H](O)CO)c(F)c1F)C(=O)C(C(=O)Nc1ccc(C(F)(F)F)cc1-c1cc(C(F)(F)F)ncn1)=C2O [Example 152, (4aR)-1-[[4-[4-[(2R)-2,3-Dihydroxypropoxy]butoxy]-2,3-difluorophenyl]methyl]-4-hydroxy-4a-methyl-2-oxo-N-[4-(trifluoromethyl)-2-[6-(trifluoromethyl)pyrimidin-4-yl]phenyl]-6,7-dihydro-5H-pyrrolo[1,2-b]pyridazine-3-carboxamide] |  | 54% | 26% |  |
|  | CN1[C@@H](C(C)(C)C)C(O)=C(C(=O)Nc2ccc(C(F)(F)F)cc2-c2cc(C(F)(F)F)ncn2)C(=O)N1Cc1ccc(OCCN2CCOCC2)c(F)c1F [Example 264, (3S)-3-tert-Butyl-1-[[2,3-difluoro-4-(2-morpholin-4-ylethoxy)phenyl]methyl]-4-hydroxy-2-methyl-6-oxo-N-[4-(trifluoromethyl)-2-[6-(trifluoromethyl)pyrimidin-4-yl]phenyl]-3H-pyridazine-5-carboxamide] |  | 48% | 15% |  |
|  | C[C@]12CCCN1N(Cc1ccc(CN3CCOCC3)c(F)c1F)C(=O)C(C(=O)Nc1ccc(C(F)(F)F)cc1-c1ccc(C(F)(F)F)nc1)=C2O.Cl [Example 164, (4aR)-1-[[2,3-Difluoro-4-(morpholin-4-ylmethyl)phenyl]methyl]-4-hydroxy-4a-methyl-2-oxo-N-[4-(trifluoromethyl)-2-[6-(trifluoromethyl)pyridin-3-yl]phenyl]-6,7-dihydro-5H-pyrrolo[1,2-b]pyridazine-3-carboxamide; hydrochloride] |  | 64% | 14% |  |
|  | COCCN(C)CCOc1ccc(CN2C(=O)C(C(=O)Nc3ccc(C(F)(F)F)cc3-c3cc(C(F)(F)F)ncn3)=C(O)C3(CCC3)N2C)c(F)c1F [Example 13, 6-[[2,3-Difluoro-4-[2-[2-methoxyethyl(methyl)amino]ethoxy]phenyl]methyl]-9-hydroxy-5-methyl-7-oxo-N-[4-(trifluoromethyl)-2-[6-(trifluoromethyl)pyrimidin-4-yl]phenyl]-5,6-diazaspiro[3.5]non-8-ene-8-carboxamide] |  | 58% | 25% |  |
|  | CN(C[C@H](O)[C@@H](O)[C@H](O)[C@H](O)CO)C(=O)CCCOc1ccc(CN2C(=O)C(C(=O)Nc3ccc(C(F)(F)F)cc3-c3cc(C(F)(F)F)ncn3)=C(O)C3(CCCC3)N2C)c(F)c1F [Example 418, 7-[[2,3-Difluoro-4-[4-[methyl-[(2S,3R,4R,5R)-2,3,4,5,6-pentahydroxyhexyl]amino]-4-oxobutoxy]phenyl]methyl]-10-hydroxy-6-methyl-8-oxo-N-[4-(trifluoromethyl)-2-[6-(trifluoromethyl)pyrimidin-4-yl]phenyl]-6,7-diazaspiro[4.5]dec-9-ene-9-carboxamide] |  | 29% |  | 38% |
|  | CN1N(Cc2ccc(OCCN3CCOCC3)c(F)c2F)C(=O)C(C(=O)Nc2ccc(C(F)(F)F)cc2-c2cc(C(F)(F)F)ncn2)=C(O)C12CCCC2 [Example 318, 7-[[2,3-Difluoro-4-(2-morpholin-4-ylethoxy)phenyl]methyl]-10-hydroxy-6-methyl-8-oxo-N-[4-(trifluoromethyl)-2-[6-(trifluoromethyl)pyrimidin-4-yl]phenyl]-6,7-diazaspiro[4.5]dec-9-ene-9-carboxamide] |  | 43% | 32% |  |
|  | CN1N(Cc2ccc(OCCCCC(=O)O)c(F)c2F)C(=O)C(C(=O)Nc2ccc(C(F)(F)F)cc2-c2cc(C(F)(F)F)ncn2)=C(O)C12CCCC2 [Example 333, 5-[2,3-Difluoro-4-[[10-hydroxy-6-methyl-8-oxo-9-[[4-(trifluoromethyl)-2-[6-(trifluoromethyl)pyrimidin-4-yl]phenyl]carbamoyl]-6,7-diazaspiro[4.5]dec-9-en-7-yl]methyl]phenoxy]pentanoic acid] |  | 29% | 8% |  |
|  | Cc1c(C#N)ncnc1-c1cc(C(F)(F)F)ccc1NC(=O)C1=C(O)[C@@]2(C)CCCN2N(Cc2ccc(OCCN3CCOCC3)c(F)c2F)C1=O [Example 22, (4aR)-N-[2-(6-Cyano-5-methylpyrimidin-4-yl)-4-(trifluoromethyl)phenyl]-1-[[2,3-difluoro-4-(2-morpholin-4-ylethoxy)phenyl]methyl]-4-hydroxy-4a-methyl-2-oxo-6,7-dihydro-5H-pyrrolo[1,2-b]pyridazine-3-carboxamide] |  | 50% | 26% |  |
|  | CN(C)CC(C)(C)COc1ccc(CN2C(=O)C(C(=O)Nc3ccc(C(F)(F)F)cc3-c3cc(C(F)(F)F)ncn3)=C(O)C3(CCCC3)N2C)c(F)c1F [Example 414, 7-(4-(3-(Dimethylamino)-2,2-dimethylpropoxy)-2,3-difluorobenzyl)-10-hydroxy-6-methyl-8-oxo-N-(4-(trifluoromethyl)-2-(6-(trifluoromethyl)pyrimidin-4-yl)phenyl)-6,7-diazaspiro[4.5]dec-9-ene-9-carboxamide] |  | 27% |  | 37% |
|  | CN1N(Cc2ccc(OCCN3CCOCC3)c(F)c2F)C(=O)C(C(=O)Nc2ccc(C(F)(F)F)cc2-c2cc(C(F)(F)F)ncn2)=C(O)C12CCC2 [Example 317, 6-[[2,3-Difluoro-4-(2-morpholin-4-ylethoxy)phenyl]methyl]-9-hydroxy-5-methyl-7-oxo-N-[4-(trifluoromethyl)-2-[6-(trifluoromethyl)pyrimidin-4-yl]phenyl]-5,6-diazaspiro[3.5]non-8-ene-8-carboxamide] |  | 57% | 22% |  |
